{"source": "paper PMC10888717", "about": "“Identification of Novel Non-Nucleoside Inhibitors of Zika Virus NS5 Protein Targeting MTase Activity” (International Journal of Molecular Sciences, 2024)", "key": {"[1]": {"assay": "Stability test in human plasma", "type": "in vitro ADME", "details": "pH 7.4, 37 °C, up to 24 h, read-out: Plasma Stab. (T1/2, h ± SD) (converted)", "protocol": "Finally, compounds were incubated in human plasma at 37 °C for 24 h. […] Taken together, stability studies confirmed that the series is suitable for further development.\nFor the ADME property determination, an Agilent 1260 Infinity HPLC-DAD interfaced with an Agilent MSD 6130 (Agilent Technologies, Palo Alto, CA, USA) was used. Chromatographic conditions were optimized using a Phenomenex Kinetex C18-100 Å column (150 × 4.6 mm) with 5 µm particle size and gradient elution with a binary solution (eluent A: H2O; eluent B: ACN; both eluents were acidified with formic acid 0.1% v/v) at room temperature. The LC analyses started with 5% of B (from t = 0 to t = 1 min), then B was increased to 95% (from t = 1 to t = 10 min) and then kept at 95% (from t = 10 to t = 19 min) and finally returned to initial conditions in 1.0 min. The flow rate was 0.6 mL/min and the injection volume was 10 µL.\nA stock solution of the target compound in DMSO (2 mM) was incubated in a test tube with pooled human plasma (55.7 mg protein/mL) and HEPES buffer (25 mM, 140 mM NaCl pH 7.4) up to a final volume of 1.0 mL. The mixture was incubated at 37 °C, and at set time points (0.0, 0.5, 1, 4, 8, 24 h), samples of 50 µL were taken, mixed with 400 µL of ACN to stop the reaction of plasmatic esterases, and centrifuged at 5000 rpm for 15 min. The supernatant was removed and analyzed using the LC-UV/MS method previously described. The half-life (t½) was calculated according to the following equation: t½=ln 2/k where k represents the substrate elimination constant. For each compound, the determination was performed in three independent experiments."}, "[2]": {"assay": "Median lethal dose assessment in Tenebrio molitor coleoptera", "type": "in vivo", "details": "in vivo, 200 mg/kg, single dose into hemocoel, 7 days observation", "protocol": "(§1) The median lethal dose (LD50) was determined for compound 17 in a Tenebrio molitor coleoptera (TMC) toxicity model published previously. Due to ethical reasons, and according to the 3Rs principle, the insect model was preferred to the murine model to preliminarily evaluate the potential in vivo toxicity. […] The experiment was repeated until LD50 was determined and finally confirmed with ten TMCs. […] Even if complete pharmacokinetics should be performed to determine plasmatic levels, the administered concentration was higher than IC50. Considering that no antiviral efficacy models have been developed in insects, future studies with optimized compounds should be translated into suitable models (i.e., mice).\n(§2) Tenebrio molitor coleoptera (TMC) and pupae for acute toxicity tests were fed at the University of Siena (Siena, Italy) on a diet previously published. Pupae and adult TMC were reared in semi-dark conditions at a temperature of 27 ± 1 °C and a relative humidity (RH) of 40–50%.\n(§3) Median lethal dose assessment was carried out as previously published. Three days after the mutation, TMCs were randomly chosen. The appropriate amount of compound 17 was solubilized at the appropriate dose expressed in mg/kg of insect weight. […]"}, "[3]": {"system": "Tenebrio molitor coleoptera (TMC)", "assay": "Median lethal dose assessment in Tenebrio molitor coleoptera", "type": "in vivo", "details": "acute administration", "protocol": "as §1, §2, §3"}}, "note": "“Also recorded” adds a separate entry of the source."}
{"smiles": "CN1C(=O)c2ccc(NC(=O)c3cc4cccc(Cl)c4s3)cc2C1=O", "note": "[Compound 17]", "values": [{"measurement": "half-life", "setting": "[1]", "result": "> 24", "unit": "h"}, {"measurement": "LD50 at 7 days", "setting": "[2]", "result": 150, "unit": "mg/kg"}, {"measurement": "in vivo toxicity (in words)", "setting": "[3]", "result": "well tolerated; also recorded: less toxic than commonly used drugs such as paracetamol and carbamazepine"}]}
